Laboratory results as given in patent publication US20260216294A1, “BETA 2-ADRENERGIC RECEPTOR AGONISTS FOR TREATMENT OR PREVENTION OF MUSCLE WASTING” (ATROGI AB, priority 2023, published 2026).

Columns and labels:
L6-myotubes [1] = assay: Glucose uptake in differentiated L6-myotubes (Biological Example 2); assay type: cell-based; conditions: for Emax at 10 µM: read-out: Biological example 2 (GU)
Procedure: (§1) Compounds described in publications referenced and incorporated herein were screened in accordance with the procedures outlined in Biological example 2 and Biological example 3.
Differentiated L6-myotubes were serum-starved overnight in medium containing 0.5% fatty-acid free BSA and stimulated with isoprenaline or the test compound, with a final concentration of 1×10^−5 M. After 1 h 40 min the cells were washed with warm glucose free medium or PBS twice and another portion of agonist was added to the glucose free medium. After 20 min the cells were exposed to 50 nM ^3H-2-deoxyglucose for 10 min before washed with ice cold glucose free medium or PBS three times and lysed with 0.2 M NaOH, 400 μL/well, for 1 h at 60° C. The cell lysate was mixed with 4 mL scintillation buffer (Emulsifier Safe, Perkin Elmer) and the radioactivity was detected in a […] (Tri-Carb 4810TR, Perkin Elmer).

L6-myotubes [2] = assay: Measurement of intracellular cAMP levels in differentiated L6-myotubes (Biological Example 3); assay type: cell-based; conditions: for Emax at 10 µM: 0.25 h
Procedure: as §1
Differentiated L6-myotubes were serum-starved overnight and stimulated with isoprenaline or the test compound with a final concentration of 1×10^−5 M, for 15 min in stimulation buffer (HBSS supplemented with 1% BSA, 5 mM HEPES and 1 mM IBMX, pH 7.4). The medium was aspirated and 100 μL of 95% EtOH was added to each well of the 24-well plate and cells were kept at −20° C. overnight. The EtOH was allowed to evaporate and 500 μL of lysis buffer (1% BSA, 5 mM HEPES and 0.3% Tween-20, pH 7.4) was added to each well. The plate was kept at −80° C. for 30 min and then at −20° C. until the day of detection when the samples were thawed. Intracellular cAMP levels were detected using an alpha screen cAMP kit (6760635D from Perkin Elmer).

[3] = glucose uptake, compound at 10 μM relative to isoproterenol at 10 μM
[4] = intracellular cAMP, compound at 10 μM relative to isoproterenol at 10 μM
[5] = glucose uptake in differentiated L6-myotubes, compound at 10 μM, activity relative to isoproterenol at 10 μM
[6] = intracellular cAMP in differentiated L6-myotubes, compound at 10 μM, activity relative to isoproterenol at 10 μM

CC(C)(C)NC[C@H](O)c1ccc(F)c(N)c1F [Compound 149, (R)-1-(3-amino-2,4-difluorophenyl)-2-(tert-butylamino)-1-ethanol]
Emax at 10 µM (L6-myotubes [1]; [3]): > 75%
Emax at 10 µM (L6-myotubes [2]; [4]): 25 to 50%

CCCCNCC(O)c1cc(Cl)c(O)c(Cl)c1 (centres unmarked) [Compound 23, 2-(butylamino)-1-(3,5-dichloro-4-hydroxyphenyl)-1-ethanol]
Emax at 10 µM (L6-myotubes [1]; [3]): < 25%
Emax at 10 µM (L6-myotubes [2]; [4]): < 25%

CC(=O)N[C@H]1CC[C@H](CC(C)(C)NC[C@H](O)c2cccc(C(F)(F)F)n2)CC1 [Compound 460]
Emax at 10 µM (L6-myotubes [1]; [5]): 50 to 75%
Emax at 10 µM (L6-myotubes [2]; [6]): < 25%

CC12CC(C1)[C@@H]([C@@H](O)c1ccccc1F)N2 [Compound 211, (S)-{(S)-1-methyl-2-azabicyclo[[2.1.1]]hex-3-yl}(o-fluorophenyl)methanol]
Emax at 10 µM (L6-myotubes [1]; [5]): > 75%
Emax at 10 µM (L6-myotubes [2]; [6]): < 25%

CN([C@H]1CC[C@@H](CC(C)(C)NC[C@H](O)c2cncc(F)c2)CC1)S(C)(=O)=O [Compound 520]
Emax at 10 µM (L6-myotubes [1]; [5]): 50 to 75%
Emax at 10 µM (L6-myotubes [2]; [6]): < 25%

CCC12CCC([C@@H](O)c3cccc(F)c3)(CC1)N2 [Compound 182, (S)-(m-fluorophenyl)(4-propyl-7-azabicyclo[[2.2.1]]hept-1-yl)methanol]
Emax at 10 µM (L6-myotubes [1]; [3]): < 25%
Emax at 10 µM (L6-myotubes [2]; [4]): < 25%

CC1(C)CCC[C@@H]([C@@H](O)c2cccc(F)c2)N1 [Compound 191]
Emax at 10 µM (L6-myotubes [1]; [3]): 25 to 50%
Emax at 10 µM (L6-myotubes [2]; [4]): < 25%

CC(C)(C)CNC[C@H](O)c1cccc(F)c1 [Compound 117, (R)-1-(m-fluorophenyl)-2-(neopentylamino)-1-ethanol]
Emax at 10 µM (L6-myotubes [1]; [3]): 25 to 50%
Emax at 10 µM (L6-myotubes [2]; [4]): < 25%

CC1(C)CCC[C@H]([C@@H](O)c2cccc(O)c2)N1 [Compound 103]
Emax at 10 µM (L6-myotubes [1]; [3]): 25 to 50%
Emax at 10 µM (L6-myotubes [2]; [4]): < 25%

O=C(N[C@H]1CC[C@H](CNC[C@H](O)c2cncc(F)c2)CC1)c1ccccc1 [Compound 317]
Emax at 10 µM (L6-myotubes [1]; [5]): 50 to 75%
Emax at 10 µM (L6-myotubes [2]; [6]): < 25%

COC(=O)[C@H]1CC[C@H](CC(C)(C)NC[C@H](O)c2cncc(F)c2)CC1 [Compound 354, methyl (1R,4r)-4-{2-[(R)-2-(5-fluoro-3-pyridyl)-2-hydroxyethylamino]-2-methylpropyl} cyclohexanecarboxylate]
Emax at 10 µM (L6-myotubes [1]; [5]): 50 to 75%
Emax at 10 µM (L6-myotubes [2]; [6]): < 25%

CCC[C@@H]1CCC[C@H]([C@H](O)c2ccccc2F)N1 [Compound 97, (R)-[(2R,6R)-6-propyl-2-piperidyl](o-fluorophenyl)methanol]
Emax at 10 µM (L6-myotubes [1]; [3]): 50 to 75%
Emax at 10 µM (L6-myotubes [2]; [4]): < 25%

CCC[C@@H](C)NC[C@H](O)c1ccc(O)cc1 [Compound 27, (R)-2-[(R)-1-methylbutylamino]-1-(p-hydroxyphenyl)-1-ethanol]
Emax at 10 µM (L6-myotubes [1]; [3]): > 75%
Emax at 10 µM (L6-myotubes [2]; [4]): 25 to 50%

COC(=O)[C@H]1CC[C@@H](CCC(C)(C)NC[C@H](O)c2cncc(F)c2)CC1 [Compound 349, methyl (1S,4s)-4-{3-[(R)-2-(5-fluoro-3-pyridyl)-2-hydroxyethylamino]-3-methylbutyl} cyclohexanecarboxylate]
Emax at 10 µM (L6-myotubes [1]; [5]): > 75%
Emax at 10 µM (L6-myotubes [2]; [6]): 25 to 50%

CCC[C@@H]1CC[C@H](C(O)c2cccc(O)c2)N1 (stereo in doubt) [Compound 57, m-{(R)-[(2R,5R)-5-propyl-2-pyrrolidinyl] hydroxymethyl}phenol]
Biological example 2 (GU) (L6-myotubes [1]; [3]): +++ (If a compound at 10 μM shows activity of more than 75% of that of isoproterenol at 10 μM, the activity is denoted with +++)
Biological example 3 (CAMP) (L6-myotubes [2]; [4]): ++ (if it is between 75 and 50% it is denoted with ++)

CCCCNCC(O)c1ccc(=O)[nH]c1 (centres unmarked) [Compound 63, 5-[2-(butylamino)-1-hydroxyethyl]-2(1H)-pyridinone]
Emax at 10 µM (L6-myotubes [1]; [3]): 25 to 50%
Emax at 10 µM (L6-myotubes [2]; [4]): < 25%

CC12CC(C1)[C@H]([C@H](O)c1cccc(F)c1)N2 [Compound 186]
Emax at 10 µM (L6-myotubes [1]; [3]): > 75%
Emax at 10 µM (L6-myotubes [2]; [4]): 50 to 75%

CC(C)(C[C@H]1CC[C@H](O)CC1)NC[C@H](O)c1cccc(F)c1 [Compound 300, (R)-2-{1,1-dimethyl-2-[(1r,4R)-4-hydroxycyclohexyl]ethylamino}-1-(m-fluorophenyl)-1-ethanol]
Emax at 10 µM (L6-myotubes [1]; [5]): > 75%
Emax at 10 µM (L6-myotubes [2]; [6]): < 25%

CCCCNCC(O)c1cccc(O)c1 (centres unmarked) [Compound 15, 2-(butylamino)-1-(m-hydroxyphenyl)-1-ethanol]
Emax at 10 µM (L6-myotubes [1]; [3]): 50 to 75%
Emax at 10 µM (L6-myotubes [2]; [4]): < 25%

CO[C@@H]1CCC[C@H](C(C)(C)NC[C@H](O)c2cccc(F)c2)C1 [Compound 255, (R)-2-{1-[(1S,3R)-3-methoxycyclohexyl]-1-methylethylamino}-1-(m-fluorophenyl)-1-ethanol]
Emax at 10 µM (L6-myotubes [1]; [5]): > 75%
Emax at 10 µM (L6-myotubes [2]; [6]): < 25%

CS(=O)(=O)N[C@H]1CC[C@H](CNC[C@H](O)c2cccc(F)c2)CC1 [Compound 311]
Emax at 10 µM (L6-myotubes [1]; [5]): 50 to 75%
Emax at 10 µM (L6-myotubes [2]; [6]): < 25%

O[C@@H](CNC[C@H]1CC[C@H](OCc2ccccc2)CC1)c1cncc(F)c1 [Compound 273, (R)-1-(5-fluoro-3-pyridyl)-2-({[(1r,4R)-4-(benzyloxy)cyclohexyl]methyl}amino)-1-ethanol]
Emax at 10 µM (L6-myotubes [1]; [5]): 25 to 50%
Emax at 10 µM (L6-myotubes [2]; [6]): < 25%

O[C@H](c1cncc(F)c1)C12CCC(CCCc3ccccc3)(CC1)N2 [Compound 532, (R)-(5-fluoro-3-pyridyl){4-(3-phenylpropyl)-7-azabicyclo[[2.2.1]]hept-1-yl}methanol]
Emax at 10 µM (L6-myotubes [1]; [5]): 50 to 75%
Emax at 10 µM (L6-myotubes [2]; [6]): 25 to 50%

CC(C)(NC[C@H](O)c1cccc(F)c1)[C@H]1CC[C@H](NS(C)(=O)=O)CC1 [Compound 385, (R)-1-(m-fluorophenyl)-2-{1-methyl-1-[(1r,4R)-4-(mesylamino)cyclohexyl]ethylamino}-1-ethanol]
Emax at 10 µM (L6-myotubes [1]; [5]): 50 to 75%
Emax at 10 µM (L6-myotubes [2]; [6]): < 25%

CC1(NC[C@H](O)c2cccc(F)c2)CC1 [Compound 82, (R)-1-(m-fluorophenyl)-2-(1-methylcyclopropylamino)-1-ethanol]
Emax at 10 µM (L6-myotubes [1]; [3]): > 75%
Emax at 10 µM (L6-myotubes [2]; [4]): < 25%

CC12CC(C1)[C@H]([C@@H](O)c1ccccc1F)N2 [Compound 212]
Emax at 10 µM (L6-myotubes [1]; [5]): > 75%
Emax at 10 µM (L6-myotubes [2]; [6]): < 25%

CNS(=O)(=O)[C@H]1CC[C@@H](CC(C)(C)NC[C@H](O)c2cccc(F)c2)CC1 [Compound 477, (R)-2-{1,1-dimethyl-2-[(1s,4S)-4-(methylaminosulfonyl)cyclohexyl]ethylamino}-1-(m-fluorophenyl)-1-ethanol]
Emax at 10 µM (L6-myotubes [1]; [5]): 50 to 75%
Emax at 10 µM (L6-myotubes [2]; [6]): < 25%

O[C@@H](CNC[C@H]1CC[C@@H](OCc2ccccc2)CC1)c1cncc(F)c1 [Compound 263, (R)-1-(5-fluoro-3-pyridyl)-2-({[(1s,4S)-4-(benzyloxy)cyclohexyl]methyl}amino)-1-ethanol]
Emax at 10 µM (L6-myotubes [1]; [5]): > 75%
Emax at 10 µM (L6-myotubes [2]; [6]): < 25%

CC1(C)CC[C@@H]([C@H](O)c2cccc(O)c2)N1 [Compound 142, m-{(R)-[(S)-5,5-dimethyl-2-pyrrolidinyl] hydroxymethyl}phenol]
Emax at 10 µM (L6-myotubes [1]; [3]): 25 to 50%
Emax at 10 µM (L6-myotubes [2]; [4]): < 25%

CC12CCC([C@@H](O)c3cncc(F)c3)(CC1)N2 [Compound 184, (S)-(5-fluoro-3-pyridyl)(4-methyl-7-azabicyclo[[2.2.1]]hept-1-yl)methanol]
Emax at 10 µM (L6-myotubes [1]; [3]): 50 to 75%
Emax at 10 µM (L6-myotubes [2]; [4]): < 25%

CO[C@H]1CC[C@@H](CCCNC[C@H](O)c2cncc(F)c2)CC1 [Compound 260, (R)-1-(5-fluoro-3-pyridyl)-2-{3-[(1s,4R)-4-methoxycyclohexyl]propylamino}-1-ethanol]
Emax at 10 µM (L6-myotubes [1]; [5]): > 75%
Emax at 10 µM (L6-myotubes [2]; [6]): < 25%
